Converted amounts (≈) assume the structure as drawn.
Experiments:
Assay type in all cases: functional
Staphylococcus aureus [1] = experiment: Antimicrobial activity against Staphylococcus aureus ATCC 6538 after 16 hrs by broth microdilution method; conditions: ATCC 6538, 16 h
Staphylococcus aureus [2] = experiment: Antimicrobial activity against methicillin-resistant Staphylococcus aureus Chaoyang clinical isolate after 16 hrs by broth microdilution method
Bacillus spizizenii = experiment: Antimicrobial activity against Bacillus subtilis ATCC 6633 after 16 hrs by broth microdilution method; conditions: ATCC 6633, 16 h
Staphylococcus aureus [3] = experiment: Antimicrobial activity against methicillin-resistant Staphylococcus aureus 309-7 clinical isolate after 16 hrs by broth microdilution method; conditions: 309-7, 16 h
Staphylococcus aureus [4] = experiment: Antimicrobial activity against methicillin-resistant Staphylococcus aureus 309-3 clinical isolate after 16 hrs by broth microdilution method; conditions: 309-3, 16 h
Staphylococcus aureus [5] = experiment: Antimicrobial activity against methicillin-resistant Staphylococcus aureus 6281 clinical isolate after 16 hrs by broth microdilution method; conditions: Staphylococcus aureus, 6281, 16 h
Staphylococcus aureus [6] = experiment: Antimicrobial activity against methicillin-resistant Staphylococcus aureus 6-42 clinical isolate after 16 hrs by broth microdilution method; conditions: 6-42, 16 h
Staphylococcus aureus [7] = experiment: Antimicrobial activity against methicillin-resistant Staphylococcus aureus 8-21 clinical isolate after 16 hrs by broth microdilution method; conditions: 8-21, 16 h
Staphylococcus aureus [8] = experiment: Antimicrobial activity against methicillin-resistant Staphylococcus aureus 309-1 clinical isolate after 16 hrs by broth microdilution method; conditions: 309-1, 16 h
Staphylococcus aureus [9] = experiment: Antimicrobial activity against methicillin-resistant Staphylococcus aureus 309-6 clinical isolate after 16 hrs by broth microdilution method; conditions: 309-6, 16 h
Staphylococcus aureus [10] = experiment: Antimicrobial activity against methicillin-resistant Staphylococcus aureus 8-24 clinical isolate after 16 hrs by broth microdilution method; conditions: 8-24, 16 h
Enterococcus faecalis [11] = experiment: Antimicrobial activity against Enterococcus faecalis VRE-309 after 16 hrs by broth microdilution method; conditions: VRE-309, 16 h
Pseudomonas aeruginosa = experiment: Antimicrobial activity against Pseudomonas aeruginosa PAO1 after 16 hrs by broth microdilution method; conditions: PAO1, 16 h
Staphylococcus aureus [12] = experiment: Antimicrobial activity against methicillin-resistant Staphylococcus aureus 309-8 clinical isolate after 16 hrs by broth microdilution method; conditions: 309-8, 16 h
Klebsiella pneumoniae = experiment: Antimicrobial activity against Klebsiella pneumoniae KP-249 clinical isolate after 16 hrs by broth microdilution method; conditions: KP-249, 16 h
Staphylococcus aureus [13] = experiment: Antimicrobial activity against methicillin-resistant Staphylococcus aureus 309-4 clinical isolate after 16 hrs by broth microdilution method; conditions: 309-4, 16 h
Enterococcus faecalis [14] = experiment: Antimicrobial activity against vancomycin-susceptible Enterococcus faecalis after 16 hrs by broth microdilution method

| Compound | MIC (Staphylococcus aureus [1]) | MIC (Staphylococcus aureus [2]) | MIC (Bacillus spizizenii) | MIC (Staphylococcus aureus [3]) | MIC (Staphylococcus aureus [4]) | MIC (Staphylococcus aureus [5]) | MIC (Staphylococcus aureus [6]) | MIC (Staphylococcus aureus [7]) | MIC (Staphylococcus aureus [8]) | MIC (Staphylococcus aureus [9]) | MIC (Staphylococcus aureus [10]) | MIC (Enterococcus faecalis [11]) | MIC (Pseudomonas aeruginosa) | MIC (Staphylococcus aureus [12]) | MIC (Klebsiella pneumoniae) | MIC (Staphylococcus aureus [13]) | MIC (Enterococcus faecalis [14]) |
| --- | --- | --- | --- | --- | --- | --- | --- | --- | --- | --- | --- | --- | --- | --- | --- | --- | --- |
| O=C1Nc2ccccc2/C1=N/NC(=S)Nc1ccccc1 | 3.12 mg/L (≈ 10.5 µM) | 3.12 mg/L (≈ 10.5 µM) | 1.56 mg/L (≈ 5.26 µM) |  |  |  |  |  |  |  |  |  |  |  |  |  |  |
| O=C1Nc2ccccc2/C1=N/NC(=S)Nc1ccc(F)cc1 | 6.25 mg/L (≈ 19.9 µM) | 3.12 mg/L (≈ 9.93 µM) | 1.56 mg/L (≈ 4.96 µM) |  |  |  |  |  |  |  |  |  |  |  |  |  |  |
| O=C1Nc2ccc(Br)cc2/C1=N/NC(=S)Nc1ccccc1 | 6.25 mg/L (≈ 16.7 µM) | 6.25 mg/L (≈ 16.7 µM) | ≤ 0.78 mg/L |  |  |  |  |  |  |  |  |  |  |  |  |  |  |
| O=C1Nc2ccc([N+](=O)[O-])cc2/C1=N/NC(=S)Nc1ccc(F)cc1 | 6.25 mg/L (≈ 17.4 µM) | 12.5 mg/L (≈ 34.8 µM) | 25 mg/L (≈ 69.6 µM) |  |  |  |  |  |  |  |  |  |  |  |  |  |  |
| O=C1Nc2ccc(F)cc2/C1=N/NC(=S)Nc1ccc(F)cc1 | 25 mg/L (≈ 75.2 µM) | 25 mg/L (≈ 75.2 µM) | 25 mg/L (≈ 75.2 µM) |  |  |  |  |  |  |  |  |  |  |  |  |  |  |
| O=C1Nc2c(F)cccc2/C1=N/NC(=S)Nc1ccccc1 | 3.12 mg/L (≈ 9.93 µM) | 1.56 mg/L (≈ 4.96 µM) | ≤ 0.78 mg/L |  |  |  |  |  |  |  |  |  |  |  |  |  |  |
| O=C1Nc2ccc(Cl)cc2/C1=N/NC(=S)Nc1ccc(F)cc1 | 12.5 mg/L (≈ 35.8 µM) | 3.12 mg/L (≈ 8.95 µM) | 6.25 mg/L (≈ 17.9 µM) |  |  |  |  |  |  |  |  |  |  |  |  |  |  |
| O=C1Nc2c(Br)cc([N+](=O)[O-])cc2/C1=N/NC(=S)Nc1ccc(F)cc1 | 1.56 mg/L (≈ 3.56 µM) | 3.12 mg/L (≈ 7.12 µM) | ≤ 0.78 mg/L |  |  |  |  |  |  |  |  |  |  |  |  |  |  |
| O=C1Nc2c(Br)cc(Br)cc2/C1=N/NC(=S)Nc1ccc(F)cc1 | 12.5 mg/L (≈ 26.5 µM) | 6.25 mg/L (≈ 13.2 µM) | 1.56 mg/L (≈ 3.3 µM) |  |  |  |  |  |  |  |  |  |  |  |  |  |  |
| O=C1Nc2c(F)cccc2/C1=N/NC(=S)Nc1cccc(F)c1 | 0.78 mg/L (≈ 2.35 µM) | 0.39 mg/L (≈ 1.17 µM) | ≤ 0.78 mg/L | 0.39 mg/L (≈ 1.17 µM) | 0.78 mg/L (≈ 2.35 µM) | 1.56 mg/L (≈ 4.69 µM) | 0.39 mg/L (≈ 1.17 µM) | 0.78 mg/L (≈ 2.35 µM) | 0.78 mg/L (≈ 2.35 µM) | 1.56 mg/L (≈ 4.69 µM) | 0.78 mg/L (≈ 2.35 µM) | 1.56 mg/L (≈ 4.69 µM) | > 100 mg/L | 0.78 mg/L (≈ 2.35 µM) | > 100 mg/L | 0.39 mg/L (≈ 1.17 µM) |  |
| COc1ccc(NC(=S)N/N=C2\C(=O)Nc3c(I)cccc32)cc1 | > 100 mg/L | 1.56 mg/L (≈ 3.45 µM) | 3.12 mg/L (≈ 6.9 µM) | 1.56 mg/L (≈ 3.45 µM) | 12.5 mg/L (≈ 27.6 µM) | 12.5 mg/L (≈ 27.6 µM) | 3.12 mg/L (≈ 6.9 µM) | 6.25 mg/L (≈ 13.8 µM) | 6.25 mg/L (≈ 13.8 µM) | 25 mg/L (≈ 55.3 µM) | 6.25 mg/L (≈ 13.8 µM) | > 100 mg/L | > 100 mg/L | 6.25 mg/L (≈ 13.8 µM) | > 100 mg/L | 6.25 mg/L (≈ 13.8 µM) | > 100 mg/L |
| Cc1ccc(NC(=S)N/N=C2\C(=O)Nc3c(I)cccc32)cc1 | 6.25 mg/L (≈ 14.3 µM) | 0.78 mg/L (≈ 1.79 µM) | 1.56 mg/L (≈ 3.58 µM) | 0.78 mg/L (≈ 1.79 µM) | 3.12 mg/L (≈ 7.15 µM) | 6.25 mg/L (≈ 14.3 µM) | 0.78 mg/L (≈ 1.79 µM) | 1.56 mg/L (≈ 3.58 µM) | 3.12 mg/L (≈ 7.15 µM) | 3.12 mg/L (≈ 7.15 µM) | 3.12 mg/L (≈ 7.15 µM) | 3.12 mg/L (≈ 7.15 µM) | > 100 mg/L | 1.56 mg/L (≈ 3.58 µM) | > 100 mg/L | 1.56 mg/L (≈ 3.58 µM) | 12.5 mg/L (≈ 28.7 µM) |
| COc1ccccc1NC(=S)N/N=C1\C(=O)Nc2c(F)cccc21 | > 100 mg/L | > 100 mg/L | > 100 mg/L | > 100 mg/L | > 100 mg/L | > 100 mg/L | > 100 mg/L | > 100 mg/L | > 100 mg/L | > 100 mg/L | > 100 mg/L | > 100 mg/L | > 100 mg/L | > 100 mg/L | > 100 mg/L | > 100 mg/L | > 100 mg/L |
| O=C1Nc2c(I)cccc2/C1=N/NC(=S)Nc1cccc(F)c1 | 1.56 mg/L (≈ 3.54 µM) | 0.78 mg/L (≈ 1.77 µM) | ≤ 0.78 mg/L | 0.78 mg/L (≈ 1.77 µM) | 1.56 mg/L (≈ 3.54 µM) | 3.12 mg/L (≈ 7.09 µM) | 0.78 mg/L (≈ 1.77 µM) | 1.56 mg/L (≈ 3.54 µM) | 0.78 mg/L (≈ 1.77 µM) | 1.56 mg/L (≈ 3.54 µM) | 1.56 mg/L (≈ 3.54 µM) | 3.12 mg/L (≈ 7.09 µM) | > 100 mg/L | 0.78 mg/L (≈ 1.77 µM) | > 100 mg/L | 0.78 mg/L (≈ 1.77 µM) | 6.25 mg/L (≈ 14.2 µM) |
| O=C1Nc2c(I)cccc2/C1=N/NC(=S)Nc1ccc(F)cc1 | 1.56 mg/L (≈ 3.54 µM) | 0.78 mg/L (≈ 1.77 µM) | ≤ 0.78 mg/L | 0.78 mg/L (≈ 1.77 µM) | 1.56 mg/L (≈ 3.54 µM) | 3.12 mg/L (≈ 7.09 µM) | 0.78 mg/L (≈ 1.77 µM) | 1.56 mg/L (≈ 3.54 µM) | 3.12 mg/L (≈ 7.09 µM) | 3.12 mg/L (≈ 7.09 µM) | 1.56 mg/L (≈ 3.54 µM) | 3.12 mg/L (≈ 7.09 µM) | > 100 mg/L | 1.56 mg/L (≈ 3.54 µM) | > 100 mg/L | 1.56 mg/L (≈ 3.54 µM) | 6.25 mg/L (≈ 14.2 µM) |
| O=C(O)c1cn(C2CC2)c2cc(N3CCNCC3)c(F)cc2c1=O [CIPROFLOXACIN] |  |  |  |  |  |  |  |  |  |  |  |  | 1 mg/L (≈ 3.02 µM) |  |  |  |  |
| COc1cccc(OC)c1C(=O)N[C@@H]1C(=O)N2[C@@H]1SC(C)(C)[C@@H]2C(=O)O [METHICILLIN] |  |  |  | > 200 mg/L | > 200 mg/L | > 200 mg/L | > 200 mg/L | > 200 mg/L | > 200 mg/L | > 200 mg/L | > 200 mg/L |  |  | > 200 mg/L |  | > 200 mg/L |  |
| CN[C@H](CC(C)C)C(=O)N[C@H]1C(=O)N[C@@H](CC(N)=O)C(=O)N[C@H]2C(=O)N[C@H]3C(=O)N[C@H](C(=O)N[C@H](C(=O)O)c4cc(O)cc(O)c4-c4cc3ccc4O)[C@H](O)c3ccc(c(Cl)c3)Oc3cc2cc(c3O[C@@H]2O[C@H](CO)[C@@H](O)[C@H](O)[C@H]2O[C@H]2C[C@](C)(N)[C@H](O)[C@H](C)O2)Oc2ccc(cc2Cl)[C@H]1O [VANCOMYCIN] |  |  | 0.5 mg/L (≈ 0.345 µM) |  |  |  |  |  |  |  |  | > 8 mg/L |  |  |  |  | 2 mg/L (≈ 1.38 µM) |

Source: ChEMBL document CHEMBL3611970, “Synthesis and evaluation of isatin-β-thiosemicarbazones as novel agents against antibiotic-resistant Gram-positive bacterial species” (2015)
